The values below come from paper PMC9936538, “Structure–Activity Relationship of N-Ethyl-Hexedrone Analogues: Role of the α-Carbon Side-Chain Length in the Mechanism of Action, Cytotoxicity, and Behavioral Effects in Mice” (ACS Chemical Neuroscience, 2023).

A short description of series [1]: Cytotoxicity in NGF-differentiated PC12 cells, WST-8 cell viability assay. The class given is cell-based. The following applies: rat, WST-8, 24 h exposure, mean ± SEM of 3–4 experiments, read-out: LC50 (approximated), cell viability. How it is done:
Pheochromocytoma cells (PC12) cells were cultured in collagen-coated dishes in DMEM supplemented with heat-inactivated 5% FBS, 10% horse serum, 10 mM HEPES, 2 mM glutamine, 25 UI/mL penicillin, and 25 μg/mL streptomycin (maintenance medium) and grown at 37 °C in a humidified 5% CO2 atmosphere. Cell differentiation was performed as described[54] with minor modifications. In brief, cells were seeded (250.000 cells/well) onto 96-well plates in the maintenance medium, and after 24 h, the medium was changed to a differentiation medium containing 50 ng/mL NGF. After 24 h, neurite outgrowth was already apparent.
Treatments with different concentrations of the drug in DMEM were performed 48 h after cell differentiation. 10 μL of the tested drug was added per well, in triplicate, and cells were incubated for 24 h at 37 °C in a humidified 5% CO2 atmosphere. Thereafter, the medium was removed and immediately replaced with a maintenance medium. 10 μL of the CCK-8 Cell Counting Kit, based on 2-(2-methoxy-4-nitrophenyl)-3-(4-nitrophenyl)-5-(2,4-disulfophenyl)-2H-tetrazolium, monosodium salt (WST-8), was added per well and was incubated for 2 h at 37 °C in a humidified 5% CO2 atmosphere. This method has been defined as a good alternative to the 3-(4,5-dimethylthiazol-2-yl)-2,5-diphenyltetrazoliumbromide (MTT) assay.[63] Optical density was measured at 450 nm, using a microplate reader.
For in vitro assays, data were normalized with 100% defined as the mean of the technical replicates in the control group and expressed as mean ± SEM. Nonlinear regression was used to fit the different competition curves. Data were plotted and best fitted to a sigmoidal dose–response curve from which an IC50 or LC50 value was obtained. Transporter ratios were calculated as (1/DAT IC50: 1/SERT IC50). Although IC50 values at inhibiting 5-HT uptake for some compounds tested are expressed as >100 μM for clarity purposes, DAT/SERT ratios were calculated with the original raw data. The Cheng–Prusoff equation was used to calculate Ki (affinity): Ki = EC50/(1 + [radioligand concentration/Kd]).[65] The sample size for behavioral experiments was determined using GPower software. One-way or two-way ANOVA, and subsequent Tukey’s posthoc test, conducted only if F was significant, was used to determine the effects of cathinones on cytotoxicity, HLA, OF, and CPP experiments. The α error probability was set at 0.05 (p < 0.05). The exact size group for the behavioral experiments is shown in the corresponding figure legends. All statistic calculations were carried out using GraphPad Prism (GraphPad software, San Diego, CA, USA).

A further series relates to Swiss CD-1 mice. Put plainly: Conditioned place preference (CPP). The following applies: for CPP preference score vs saline: 3 mg/kg i.p. Format: in vivo. How it is done: Male Swiss CD-1 mice (Janvier, Le Genest, France) weighing 30–35 g (6–8 weeks old), housed in temperature-controlled conditions (22 ± 1 °C) under a 12 h light/dark cycle and with free access to food and drinking water (standard laboratory diet, Panlab SL, Barcelona, Spain), were randomly assigned to an experimental group. Efforts were made to minimize animal use and suffering.
The potential of the studied compounds to induce reward was determined using a place conditioning paradigm, as described.[6] For this experiment, an apparatus with two distinct compartments, with differences in tactile and visual cues, communicated by a central corridor, has been used. In brief, CPP was performed in three phases: preconditioning test, conditioning, and postconditioning test. During the preconditioning phase (day 0), mice were placed in the middle of the corridor and had free access to both compartments for 15 min. The time spent in each compartment was recorded and monitored using a specific tracking software (Smart 3.0 Panlab, Barcelona, Spain). […] In the alternative session, mice received a saline i.p. injection and were placed for 20 min in the other compartment. Mice in the control group received a saline injection in every session. The compartment and session in which mice received the drug were randomized. On the test day (postconditioning phase), the same conditions as in the preconditioning phase were applied. A preference score was calculated as the difference between the time spent in the drug-paired compartment in the postconditioning test minus the time spent in the preconditioning phase.

Regarding `CCNC(CC)C(=O)c1ccccc1` (stereo not shown) [NEB, N-ethyl-buphedrone], the CC50 at 24 h in series [1] stood at 6.24 mM. Moreover, in the series with Swiss CD-1 mice, the “CPP preference score vs saline” value was “significant preference score”. In the series on Swiss CD-1 mice (10 mg/kg i.p.), the “CPP rewarding effect vs saline” value is “produce rewarding effects”.

Regarding `CCNC(C)C(=O)c1ccccc1` (stereo not shown) [NEC, N-ethyl-cathinone], in series [1], the CC50 at 24 h is 3.97 mM. Further, the “CPP preference score vs saline” value in the series on Swiss CD-1 mice was “significant preference score”. In addition, the “CPP rewarding effect vs saline” value in the series with Swiss CD-1 mice (10 mg/kg i.p.) is “produce rewarding effects”.

For `CCCCC(NCC)C(=O)c1ccccc1` (stereo not shown) [NEH, N-ethyl-hexedrone], the CC50 at 24 h in series [1] is 3.28 mM. Also, the “CPP rewarding effect vs saline” value in the series with Swiss CD-1 mice (10 mg/kg i.p.) is “produce rewarding effects”.

Regarding `CCCCCC(NCC)C(=O)c1ccccc1` (stereo not shown) [NEHP, N-ethyl-heptedrone], the CC50 at 24 h in series [1] came to 1.26 mM. Also, in the series with Swiss CD-1 mice (any dose tested (3, 10, 30 mg/kg i.p.)), the “CPP rewarding effect vs saline” value is recorded as “did not induce a significant rewarding effect”.

As to `CCCC(NCC)C(=O)c1ccccc1` (stereo not shown) [NEPD, N-ethyl-pentedrone], the CC50 at 24 h in series [1] came out at 3.82 mM. Also, the “CPP preference score vs saline” value in the series on Swiss CD-1 mice is reported as “significant preference score”. The “CPP rewarding effect vs saline” value in the series on Swiss CD-1 mice (10 mg/kg i.p.) is “produce rewarding effects”.
